The source of these data is patent US20070156342A1, “Pseudo-sequence method for comparing 7tm receptors with respect to the physico-chemical properties of their binding sites” (7TM PHARMA A/S, priority 2003, published 2007).

The target in the assay is T1, GRP44 (CRTH2) (Homo sapiens, UniProt Q9Y5Y4).
T1 sequence (Q9Y5Y4 1-395): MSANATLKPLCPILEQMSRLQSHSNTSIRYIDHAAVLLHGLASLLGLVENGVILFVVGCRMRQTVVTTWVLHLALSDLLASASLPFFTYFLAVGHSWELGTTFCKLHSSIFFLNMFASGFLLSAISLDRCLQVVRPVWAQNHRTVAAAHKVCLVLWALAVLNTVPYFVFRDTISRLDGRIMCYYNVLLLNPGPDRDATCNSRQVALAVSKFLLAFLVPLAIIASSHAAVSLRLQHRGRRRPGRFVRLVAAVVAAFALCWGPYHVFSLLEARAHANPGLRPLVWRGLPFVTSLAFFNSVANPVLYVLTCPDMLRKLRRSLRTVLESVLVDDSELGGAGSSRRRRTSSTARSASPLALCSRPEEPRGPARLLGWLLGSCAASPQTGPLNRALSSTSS
The assay can be described thus: Inhibition of [3H]PGD2 at GRP44 (CRTH2). Type of assay: binding. From the text:
A model using theoretical size and electronic descriptors ranked the angiotensin AT2 and angiotensin AT1 receptors to be closely related to GRP44 (CRTH2) with respect to ligand-binding features in the binding site.

By IC50 is commonly meant the concentration needed to halve the response being measured. `CCOc1nc2cccc(C(=O)O)c2n1Cc1ccc(-c2ccccc2-c2nnn[nH]2)cc1` [candesartan]: the “binding to CRTH2 (in words)” value (angiotensin II ligand found via the related receptor) is reported as “also binding to CRTH2”. The IC50 (radioligand [3H]PGD2) turned out to be 2100 nM.
